Measured values from patent US4435393A, “Derivatives of 10-(1-azabicyclo[2.2.2]oct-3-yl)-N,N dimethyl-10H-phenothiazine-2-sulfonamide as medicaments” (Pharmindustrie, priority 1981, dated 1984).
Read-outs that look alike come from different tables or passages of the source.

Tested on: gastric hypersecretion stimulated by pentagastrine
Assay: antisecretory activity on gastric hypersecretion stimulated by pentagastrine in dogs wearing a Heidenhain pouch
Assay type: in vivo, dog (mongrel)
Conditions: for ED50: Canis lupus familiaris, read-out: ED 50 (dose which reduced by 50% the hourly acid flow)
Experimental: Three mongrel dogs wearing Heidenhain pouches and which were kept without food for 18 hours received a venous perfusion of […] of pentagastrine per hour in a volume of 30 mls per hour for 4 hours. The secretion from the pouch was collected in a flask which was changed every 15 minutes. An hour and a half after the beginning of the perfusion process, the product to be examined was administered orally in a No. 000 gelatin coated pill. […] The doses are expressed in the product in the base form.

[1] = oral, Heidenhain pouch dogs, pentagastrine perfusion, acid flow at 3rd or 4th hour vs second hour, doses expressed as base

| Compound | ED50 (po) | ED50 [1] | inhibition of gastric secretion relative to Cimetidine (oral, Heidenhain pouch dogs) |
| --- | --- | --- | --- |
| CN/C(=N/CCSCc1nc[nH]c1C)NC#N [Cimetidine, reference compound] | 2.3 mg/kg |  |  |
| CN(C)S(=O)(=O)c1ccc2c(c1)N(C1CN3CCC1CC3)c1ccccc1[S+]2[O-] (single isomer, unassigned) [Example 2, 10-(1-azabicyclo[2.2.2]oct-3-yl)-N,N dimethyl-10H-phenothiazine-2-sulfonamide S-oxide] |  | 2.5 mg/kg | as active as Cimetidine |
| CN(C)S(=O)(=O)c1ccc2c(c1)N(C1CN3CCC1CC3)c1ccccc1S2(=O)=O (stereo not drawn) [Example 3, 10-(1-azabicyclo[2.2.2]oct-3-yl)-N,N dimethyl-10H-phenothiazine-2 sulfonamide S-dioxide] |  | 10 mg/kg |  |
| CN(C)S(=O)(=O)c1ccc2c(c1)N(C1CN3CCC1CC3)c1ccccc1[S+]2[O-] (stereo not drawn) [Example 1, 10-(1-azabicyclo[2.2.2]oct-3-yl)-N,N dimethyl-10H-phenothiaxine-2-sulfonamide S-oxide] |  | 2.3 mg/kg | as active as Cimetidine |
